Data published in patent publication US9458195B2, “Melanocortin receptor ligands” (Ipsen Pharma S.A.S., priority 2005, dated 2016).
Bridges are numbered along the chain shown (N, C = ends). [ ]: non-standard residue; d: D form. Pen = CC(C)(S)[C@H](N)C(=O)O; Nle = CCCC[C@H](N)C(=O)O; GABA = NCCCC(=O)O

Key:
hMC1-R [1] = target: T1, hMC1-R (Homo sapiens, UniProt Q01726); assay: cyclic AMP bioassay (ECL), CHO-K1 cells expressing hMC1-R; format: cell-based; conditions: Table 3B, cAMP
T1 construct: expressed in transfected cells; host or cells: CHO-K1 (membranes)
T1 sequence (Q01726 whole entry): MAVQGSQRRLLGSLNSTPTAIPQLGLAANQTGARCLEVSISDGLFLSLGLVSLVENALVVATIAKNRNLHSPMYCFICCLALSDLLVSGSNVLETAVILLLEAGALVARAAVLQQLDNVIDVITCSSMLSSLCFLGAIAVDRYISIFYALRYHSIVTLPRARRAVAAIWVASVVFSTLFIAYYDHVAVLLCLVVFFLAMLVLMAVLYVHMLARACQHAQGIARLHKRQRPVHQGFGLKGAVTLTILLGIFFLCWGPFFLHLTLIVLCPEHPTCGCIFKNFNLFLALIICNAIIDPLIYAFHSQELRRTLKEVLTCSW
Description: (§4) Intracellular cyclic AMP (cAMP) levels were determined by an electrochemiluminescence (ECL) assay (Meso Scale Discovery®, Gaithersburg, Md.; referred to hereinafter as MSD). […] Transgenic CHO-K1 cells stably expressing hMC receptor subtypes 1, 3, 4 or 5 were dispensed at a density of approximately 7,000 cells/well in 384-well Multi-Array® plates (MSD) containing integrated carbon electrodes and coated with anti-cAMP antibody. Increasing concentrations of the test compounds were added and the cells were incubated for approximately 40 minutes at approximately 37° C. […] At the end of the second incubation period read buffer (Tris-buffered solution containing an ECL co-reactant and Triton X-100 at ph 7.8) was added and the cAMP levels in the cell lysates were immediately determined by ECL detection with a Sector Imager 6000 Reader® (MSD). Data were analyzed using a computer-assisted non-linear regression analysis (XL fit; IDBS) and reported as either an EC50 value or a Kb value.

hMC3-R [2] = target: T2, hMC3-R (Homo sapiens, UniProt P41968); assay: cyclic AMP bioassay (ECL), CHO-K1 cells expressing hMC3-R; format: cell-based; conditions: Table 3B, cAMP
T2 construct: expressed in transfected cells; host or cells: CHO-K1 (membranes)
T2 sequence (P41968 whole entry): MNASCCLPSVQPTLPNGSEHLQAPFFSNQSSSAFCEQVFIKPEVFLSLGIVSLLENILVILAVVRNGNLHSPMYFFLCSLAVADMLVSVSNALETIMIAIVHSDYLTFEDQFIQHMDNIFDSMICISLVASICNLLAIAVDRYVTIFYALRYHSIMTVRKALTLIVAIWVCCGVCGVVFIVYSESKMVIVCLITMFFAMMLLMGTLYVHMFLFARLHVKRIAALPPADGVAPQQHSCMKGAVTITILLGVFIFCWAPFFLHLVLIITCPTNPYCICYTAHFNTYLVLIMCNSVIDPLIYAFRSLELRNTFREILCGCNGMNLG
Description: as §4

hMC4-R [3] = target: T3, hMC4-R (Homo sapiens, UniProt P32245); assay: cyclic AMP bioassay (ECL), CHO-K1 cells expressing hMC4-R; format: cell-based; conditions: Table 3B, cAMP
T3 construct: expressed in transfected cells; host or cells: CHO-K1 (membranes)
T3 sequence (P32245 whole entry): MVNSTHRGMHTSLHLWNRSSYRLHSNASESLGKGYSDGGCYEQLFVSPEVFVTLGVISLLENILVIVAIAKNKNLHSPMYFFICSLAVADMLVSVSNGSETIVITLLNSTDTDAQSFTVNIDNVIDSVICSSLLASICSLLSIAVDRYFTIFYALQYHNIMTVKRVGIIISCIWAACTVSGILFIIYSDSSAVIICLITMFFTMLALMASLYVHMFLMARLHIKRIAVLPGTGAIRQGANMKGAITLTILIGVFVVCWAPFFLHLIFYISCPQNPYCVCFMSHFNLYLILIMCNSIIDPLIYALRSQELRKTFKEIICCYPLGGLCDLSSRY
Description: as §4

hMC5-R [4] = target: T4, hMC5-R (Homo sapiens, UniProt P33032); assay: cyclic AMP bioassay (ECL), CHO-K1 cells expressing hMC5-R; format: cell-based; conditions: Table 3B, cAMP
T4 construct: expressed in transfected cells; host or cells: CHO-K1 (membranes)
T4 sequence (P33032 whole entry): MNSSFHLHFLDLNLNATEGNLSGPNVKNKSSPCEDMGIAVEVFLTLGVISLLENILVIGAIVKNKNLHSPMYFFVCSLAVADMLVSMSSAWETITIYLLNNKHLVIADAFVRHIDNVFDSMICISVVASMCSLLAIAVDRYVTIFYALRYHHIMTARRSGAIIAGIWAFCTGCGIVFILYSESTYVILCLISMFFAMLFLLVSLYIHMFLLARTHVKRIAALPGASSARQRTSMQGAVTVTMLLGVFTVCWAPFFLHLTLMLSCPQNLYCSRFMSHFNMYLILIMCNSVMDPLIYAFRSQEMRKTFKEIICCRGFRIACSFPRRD
Description: as §4

hMC3-R [5] = target: T2, hMC3-R; assay: Radioligand binding assay, [125I]-NDP-α-MSH competition, hMC3-R; conditions: CHO-K1 cell membranes
Description: (§1) Radioligand Binding Assays
(§2) Cellular membranes used for the in vitro receptor binding assays were obtained from transgenic CHO-K1 cells stably expressing hMC-R receptor subtypes 1, 3, 4 or 5. […] The pellets were resuspended in the same buffer and centrifuged at 50,000 g for 10 minutes at approximately 4° C. The washed pellets containing the cellular membranes were stored at approximately −80° C.
(§3) Filters were washed three times with 50 mM Tris-HCl at pH 7.4 at a temperature of approximately 0-4° C. and then assayed for radioactivity using a Packard Topcount® scintillation counter. Binding data were analyzed by computer-assisted non-linear regression analysis (XL fit; IDBS).

hMC5-R [6] = target: T4, hMC5-R; assay: Radioligand binding assay, [125I]-NDP-α-MSH competition, hMC5-R; conditions: CHO-K1 cell membranes
Description: as §1, §2, §3

hMC4-R [7] = target: T3, hMC4-R; assay: Radioligand binding assay, [125I]-NDP-α-MSH competition, hMC4-R; conditions: CHO-K1 cell membranes
Description: as §1, §2, §3

hMC1-R [8] = target: T1, hMC1-R; assay: Radioligand binding assay, [125I]-NDP-α-MSH competition, hMC1-R; conditions: CHO-K1 cell membranes
Description: as §1, §2, §3

Work on “Ac-[Nle]CH[dF]RW[GABA][Pen]-NH2 (disulfide 2-8)” yielded an EC50 (hMC1-R [1]) of 0.28 nM, an EC50 (hMC3-R [2]) of 0.24 nM and an EC50 (hMC4-R [3]) of 0.028 nM. For the same substance, the EC50 (hMC5-R [4]) was 3.9 nM, the Ki (hMC3-R [5]) was 10 nM and the Ki (hMC5-R [6]) was 0.42 nM. It also gave a Ki (hMC4-R [7]) of 0.43 nM and a Ki (hMC1-R [8]) of 0.12 nM.
